Legend:
Adenosine = test: Affinity to brain targets (panel); format: binding; settings: Adenosine (A)
α1A-1C = test: Affinity to brain targets (panel); format: binding
BZP = test: Affinity to brain targets (panel); format: binding; settings: BZP: benzodiazepine
Ca++ channel = test: Affinity to brain targets (panel); format: binding
AMPA = test: Affinity to brain targets (panel); format: binding
NET = NET (Homo sapiens, UniProt P23975); test: Affinity to brain targets (panel); format: binding; settings: NET: norepinephrine transporter
NK = test: Affinity to brain targets (panel); format: binding; settings: NK: neurokinin
Sigma1 = Sigma1 (Homo sapiens, UniProt Q99720); test: Affinity to brain targets (panel); format: binding
Sigma1, sequence (Q99720 whole entry): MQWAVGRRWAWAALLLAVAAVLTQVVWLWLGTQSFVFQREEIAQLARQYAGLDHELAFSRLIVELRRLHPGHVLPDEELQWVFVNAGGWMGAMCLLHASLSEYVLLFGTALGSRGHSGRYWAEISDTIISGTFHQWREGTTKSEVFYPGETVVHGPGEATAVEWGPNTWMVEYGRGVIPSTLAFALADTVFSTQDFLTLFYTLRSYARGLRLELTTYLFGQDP

Na+ Channel = test: Affinity to brain targets (panel); format: binding
mGluR = test: Affinity to brain targets (panel); format: binding; settings: mGluR (mGluRs): metabotropic glutamate receptors
NOP = NOP (Homo sapiens, UniProt P41146); test: Affinity to brain targets (panel); format: binding
NOP, sequence (P41146 whole entry): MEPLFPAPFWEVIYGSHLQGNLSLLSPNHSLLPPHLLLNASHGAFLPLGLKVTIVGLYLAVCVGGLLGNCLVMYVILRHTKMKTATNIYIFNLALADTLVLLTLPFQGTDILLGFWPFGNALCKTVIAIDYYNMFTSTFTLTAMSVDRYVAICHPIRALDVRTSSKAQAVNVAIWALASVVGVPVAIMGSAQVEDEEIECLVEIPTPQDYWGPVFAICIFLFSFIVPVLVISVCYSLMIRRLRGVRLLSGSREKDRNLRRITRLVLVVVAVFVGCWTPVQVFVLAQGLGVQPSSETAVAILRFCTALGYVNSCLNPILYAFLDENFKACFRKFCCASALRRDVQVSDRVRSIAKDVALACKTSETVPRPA

PBR = PBR (Homo sapiens, UniProt P30536); test: Affinity to brain targets (panel); format: binding
PBR, sequence (P30536 whole entry, species assumed): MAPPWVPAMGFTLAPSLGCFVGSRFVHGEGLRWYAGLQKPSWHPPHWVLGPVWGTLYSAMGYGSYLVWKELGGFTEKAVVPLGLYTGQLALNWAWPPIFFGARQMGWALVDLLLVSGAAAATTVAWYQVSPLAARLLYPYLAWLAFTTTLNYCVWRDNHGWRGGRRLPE

Oxytocin = biological target: T1, Oxytocin (Homo sapiens, UniProt P30559); test: Affinity to brain targets (panel); format: binding
T1 sequence (P30559 1-389): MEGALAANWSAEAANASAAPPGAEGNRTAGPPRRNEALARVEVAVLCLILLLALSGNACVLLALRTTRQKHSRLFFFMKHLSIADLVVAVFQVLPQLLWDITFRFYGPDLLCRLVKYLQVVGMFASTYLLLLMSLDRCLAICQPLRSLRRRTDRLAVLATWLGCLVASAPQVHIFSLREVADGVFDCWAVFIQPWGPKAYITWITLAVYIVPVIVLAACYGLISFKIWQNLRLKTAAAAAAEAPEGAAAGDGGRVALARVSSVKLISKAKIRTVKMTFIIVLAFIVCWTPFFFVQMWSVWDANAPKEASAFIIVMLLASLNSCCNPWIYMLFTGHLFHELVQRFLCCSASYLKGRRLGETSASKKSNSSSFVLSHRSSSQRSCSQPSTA

Smoothened = Smoothened (Homo sapiens, UniProt Q99835); test: Affinity to brain targets (panel); format: binding
Smoothened, sequence (Q99835 28-787): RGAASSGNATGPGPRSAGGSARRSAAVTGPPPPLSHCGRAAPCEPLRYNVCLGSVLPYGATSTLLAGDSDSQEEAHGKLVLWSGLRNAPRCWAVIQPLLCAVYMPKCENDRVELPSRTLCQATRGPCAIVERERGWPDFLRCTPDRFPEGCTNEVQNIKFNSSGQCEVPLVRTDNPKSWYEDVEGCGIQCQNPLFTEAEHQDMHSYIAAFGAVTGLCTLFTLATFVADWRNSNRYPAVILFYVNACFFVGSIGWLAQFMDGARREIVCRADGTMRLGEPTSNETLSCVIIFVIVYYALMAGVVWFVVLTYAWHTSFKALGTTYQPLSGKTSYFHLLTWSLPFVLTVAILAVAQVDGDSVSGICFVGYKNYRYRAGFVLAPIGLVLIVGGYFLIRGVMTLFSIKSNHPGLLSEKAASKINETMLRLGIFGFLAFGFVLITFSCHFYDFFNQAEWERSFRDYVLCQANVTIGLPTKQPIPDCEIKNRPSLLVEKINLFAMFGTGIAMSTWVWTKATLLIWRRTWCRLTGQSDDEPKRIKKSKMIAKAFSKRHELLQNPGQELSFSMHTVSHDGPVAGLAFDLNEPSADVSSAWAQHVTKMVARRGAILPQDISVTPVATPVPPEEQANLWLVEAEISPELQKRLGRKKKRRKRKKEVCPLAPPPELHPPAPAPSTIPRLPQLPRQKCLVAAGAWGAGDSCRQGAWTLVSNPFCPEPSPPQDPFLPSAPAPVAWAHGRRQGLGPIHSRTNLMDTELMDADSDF

KA = test: Affinity to brain targets (panel); format: binding; settings: KA (KAR): Kainate
DAT = DAT (Homo sapiens, UniProt Q01959); test: Affinity to brain targets (panel); format: binding; settings: DAT: dopamine transporters
DOR = DOR (Homo sapiens, UniProt P41143); test: Affinity to brain targets (panel); format: binding; settings: DOR: delta opioid receptors
DOR, sequence (P41143 whole entry): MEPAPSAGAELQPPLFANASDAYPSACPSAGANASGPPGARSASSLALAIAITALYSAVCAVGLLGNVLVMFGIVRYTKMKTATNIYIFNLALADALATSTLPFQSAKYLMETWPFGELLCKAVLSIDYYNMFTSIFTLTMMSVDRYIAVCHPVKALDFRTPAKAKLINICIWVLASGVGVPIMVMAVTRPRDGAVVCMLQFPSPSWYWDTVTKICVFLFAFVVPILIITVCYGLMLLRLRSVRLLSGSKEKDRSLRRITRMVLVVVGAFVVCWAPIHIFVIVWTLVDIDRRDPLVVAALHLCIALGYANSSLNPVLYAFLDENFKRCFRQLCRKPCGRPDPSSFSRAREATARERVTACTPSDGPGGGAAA

EP = test: Affinity to brain targets (panel); format: binding; settings: EP: prostanoid receptors
GABA = test: Affinity to brain targets (panel); format: binding
HERG = HERG (Homo sapiens, UniProt Q12809); test: Affinity to brain targets (panel); format: binding; settings: HERG: human ether-a-go-go
KOR = KOR (Homo sapiens, UniProt P41145); test: Affinity to brain targets (panel); format: binding; settings: KOR: kappa opioid receptors
KOR, sequence (P41145 whole entry): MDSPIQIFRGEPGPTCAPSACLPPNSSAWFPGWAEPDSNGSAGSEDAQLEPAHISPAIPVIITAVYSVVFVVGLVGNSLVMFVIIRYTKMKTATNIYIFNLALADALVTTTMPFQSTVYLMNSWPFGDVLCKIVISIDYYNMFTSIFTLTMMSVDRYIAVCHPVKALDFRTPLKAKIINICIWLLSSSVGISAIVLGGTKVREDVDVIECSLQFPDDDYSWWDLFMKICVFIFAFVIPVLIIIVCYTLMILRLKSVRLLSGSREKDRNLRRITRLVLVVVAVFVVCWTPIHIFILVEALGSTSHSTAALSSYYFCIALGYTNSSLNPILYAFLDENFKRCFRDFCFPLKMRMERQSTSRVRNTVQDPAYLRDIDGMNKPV

M = test: Affinity to brain targets (panel); format: binding; settings: M: muscarinic
H3, H4 = test: Affinity to brain targets (panel); format: binding; settings: H3, H4: histamine
MDR1 = MDR1 (Homo sapiens, UniProt P08183); test: Affinity to brain targets (panel); format: binding; settings: MDR1: multidrug resistance
MDR1, sequence (P08183 whole entry, species assumed): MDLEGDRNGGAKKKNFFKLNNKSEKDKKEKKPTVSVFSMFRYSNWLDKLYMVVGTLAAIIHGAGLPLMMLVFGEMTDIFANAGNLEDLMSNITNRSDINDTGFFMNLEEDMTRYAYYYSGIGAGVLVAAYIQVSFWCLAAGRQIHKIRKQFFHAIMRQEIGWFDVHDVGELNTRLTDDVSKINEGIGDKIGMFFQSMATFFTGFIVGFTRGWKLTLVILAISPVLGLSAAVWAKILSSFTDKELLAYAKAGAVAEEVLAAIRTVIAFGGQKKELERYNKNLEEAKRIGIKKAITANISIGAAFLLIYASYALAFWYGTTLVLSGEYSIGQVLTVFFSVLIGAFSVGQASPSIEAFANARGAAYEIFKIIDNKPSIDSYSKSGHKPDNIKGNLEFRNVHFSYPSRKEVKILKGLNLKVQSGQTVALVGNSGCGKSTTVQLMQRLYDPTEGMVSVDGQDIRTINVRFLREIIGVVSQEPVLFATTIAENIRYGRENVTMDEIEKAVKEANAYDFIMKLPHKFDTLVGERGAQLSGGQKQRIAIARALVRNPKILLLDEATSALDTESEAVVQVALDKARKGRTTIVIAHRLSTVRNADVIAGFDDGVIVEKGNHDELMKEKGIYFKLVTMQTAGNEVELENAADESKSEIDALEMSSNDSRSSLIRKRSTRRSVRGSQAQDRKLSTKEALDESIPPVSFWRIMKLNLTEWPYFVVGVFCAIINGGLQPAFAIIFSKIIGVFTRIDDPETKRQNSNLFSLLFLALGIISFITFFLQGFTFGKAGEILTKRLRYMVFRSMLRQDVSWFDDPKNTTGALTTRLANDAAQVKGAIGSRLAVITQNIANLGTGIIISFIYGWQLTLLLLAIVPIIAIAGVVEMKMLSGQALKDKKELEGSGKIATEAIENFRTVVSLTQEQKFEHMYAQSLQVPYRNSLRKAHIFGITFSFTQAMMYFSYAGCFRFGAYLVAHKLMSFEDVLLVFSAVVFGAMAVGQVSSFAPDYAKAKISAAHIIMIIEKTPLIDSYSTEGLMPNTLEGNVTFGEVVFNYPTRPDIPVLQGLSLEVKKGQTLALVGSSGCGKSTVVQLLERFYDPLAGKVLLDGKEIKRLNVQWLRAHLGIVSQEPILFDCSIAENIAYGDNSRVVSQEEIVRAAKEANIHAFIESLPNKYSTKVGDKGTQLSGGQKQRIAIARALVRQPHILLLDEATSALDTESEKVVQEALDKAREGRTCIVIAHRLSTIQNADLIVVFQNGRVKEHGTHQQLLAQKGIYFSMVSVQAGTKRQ

H1 = H1 (Homo sapiens, UniProt P35367); test: Affinity to brain targets (panel); format: binding; settings: H1: histamine
H1, sequence (P35367 whole entry): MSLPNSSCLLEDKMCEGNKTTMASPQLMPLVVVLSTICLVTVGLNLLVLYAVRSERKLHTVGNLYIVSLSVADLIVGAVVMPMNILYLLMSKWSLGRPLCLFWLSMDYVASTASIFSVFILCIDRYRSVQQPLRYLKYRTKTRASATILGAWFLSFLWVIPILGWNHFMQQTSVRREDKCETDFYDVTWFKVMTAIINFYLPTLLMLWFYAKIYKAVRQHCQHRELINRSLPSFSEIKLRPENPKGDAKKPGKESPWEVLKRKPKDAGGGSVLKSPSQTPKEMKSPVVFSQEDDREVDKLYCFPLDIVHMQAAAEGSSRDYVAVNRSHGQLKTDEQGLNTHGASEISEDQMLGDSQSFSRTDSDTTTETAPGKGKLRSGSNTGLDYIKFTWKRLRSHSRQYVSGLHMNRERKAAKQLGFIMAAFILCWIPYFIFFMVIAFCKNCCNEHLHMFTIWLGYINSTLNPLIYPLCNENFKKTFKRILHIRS

H2 = H2 (Homo sapiens, UniProt P25021); test: Affinity to brain targets (panel); format: binding; settings: H2: histamine
H2, sequence (P25021 whole entry): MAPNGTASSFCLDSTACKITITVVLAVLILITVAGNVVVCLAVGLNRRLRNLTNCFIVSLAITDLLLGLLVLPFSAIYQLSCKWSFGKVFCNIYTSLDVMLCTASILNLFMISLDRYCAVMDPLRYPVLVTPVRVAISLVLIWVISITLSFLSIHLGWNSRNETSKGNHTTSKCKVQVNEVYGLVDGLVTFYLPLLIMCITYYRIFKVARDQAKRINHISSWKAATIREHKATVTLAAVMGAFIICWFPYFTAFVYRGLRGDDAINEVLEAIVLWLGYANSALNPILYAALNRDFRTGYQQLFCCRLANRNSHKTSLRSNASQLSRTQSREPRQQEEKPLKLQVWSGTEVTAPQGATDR

MOR = MOR (Homo sapiens, UniProt P35372); test: Affinity to brain targets (panel); format: binding; settings: MOR: mu opioid receptor
MOR, sequence (P35372 whole entry): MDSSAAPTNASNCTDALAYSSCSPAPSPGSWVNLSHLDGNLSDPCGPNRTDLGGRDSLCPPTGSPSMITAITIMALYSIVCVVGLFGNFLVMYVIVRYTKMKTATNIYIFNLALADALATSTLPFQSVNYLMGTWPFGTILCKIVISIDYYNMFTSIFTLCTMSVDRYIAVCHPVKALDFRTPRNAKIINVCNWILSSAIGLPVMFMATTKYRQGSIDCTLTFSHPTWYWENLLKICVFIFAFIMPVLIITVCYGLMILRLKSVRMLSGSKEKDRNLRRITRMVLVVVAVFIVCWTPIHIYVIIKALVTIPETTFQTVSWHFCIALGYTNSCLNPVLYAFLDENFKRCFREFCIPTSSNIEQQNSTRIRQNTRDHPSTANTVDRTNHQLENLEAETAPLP

NMDA = test: Affinity to brain targets (panel); format: binding
SERT = SERT (Homo sapiens, UniProt P31645); test: Affinity to brain targets (panel); format: binding; settings: SERT: serotonin transporter
Sigma2 = Sigma2 (Homo sapiens, UniProt Q5BJF2); test: Affinity to brain targets (panel); format: binding; settings: Sigma2 (Sigma 2)
I = test: Affinity to brain targets (panel); format: binding
VMAT = test: Affinity to brain targets (panel); format: binding; settings: VMAT (VMAT 1,2): vesicular monoamine transporter
NT = test: Affinity to brain targets (panel); format: binding; settings: NT: neurotrophin
PKC = test: Affinity to brain targets (panel); format: binding; settings: PKC: Protein kinase C
5-HT1A-1E = test: Affinity to brain targets (panel); format: binding
5-HT2A-2C = test: Affinity to brain targets (panel); format: binding
5-HT3-7 = test: Affinity to brain targets (panel); format: binding
α2A-2C = test: Affinity to brain targets (panel); format: binding
β1-3 = test: Affinity to brain targets (panel); format: binding
CB1, CB2 = test: Affinity to brain targets (panel); format: binding
D1-D5 = test: Affinity to brain targets (panel); format: binding
brain MTs = test: MicroPET in mice brain; format: in vivo; settings: for BBB penetration and brain distribution: microPET, mice
Protocol: Blocking with unlabeled MPC-6827 and HD-800 (5 mg/kg/i.v) 20 minute prior to radioligand administration indicates specific binding of radiotracer to brain MTs. […] Time activity curves (TACs) further confirm the washout of [^11C]HD-800 in mice brain and excellent specific binding with unlabeled HD-800 and MPC-6827 as blocking agents (FIG. 9).^23-24
The distribution pattern of [^18F]FEMPC-6827 in the mice brain is similar to that of [^11C]MPC-6827 and [^11C]HD-800.

panel of kinases = settings: cited from earlier work
[1] = references 12-14; cited from earlier work
tumor xenografts = settings: references 12-14; cited from earlier work

SMILES: Cc1nc(N(C)c2ccc(OCCF)cc2)c2ccccc2n1 [FEMPC-6827]
- Ki (Adenosine): > 10 µM
- Ki (α1A-1C): > 10 µM
- Ki (BZP): > 10 µM
- Ki (Ca++ channel): > 10 µM
- Ki (AMPA): > 10 µM
- Ki (NET): > 10 µM
- Ki (NK): > 10 µM
- Ki (Sigma1): 0.051 µM
- Ki (Na+ Channel): > 10 µM
- Ki (mGluR): > 10 µM
- Ki (NOP): > 10 µM
- Ki (PBR): 1.59 µM
- Ki (Oxytocin): > 10 µM
- Ki (Smoothened): > 10 µM
- Ki (KA): > 10 µM
- Ki (DAT): > 10 µM
- Ki (DOR): > 10 µM
- Ki (EP): > 10 µM
- Ki (GABA): > 10 µM
- Ki (HERG): > 10 µM
- Ki (KOR): > 10 µM
- Ki (M): > 10 µM
- Ki (H3, H4): > 10 µM
- Ki (MDR1): > 10 µM
- Ki (H1): 0.305 µM
- Ki (H2): 2.31 µM
- Ki (MOR): > 10 µM
- Ki (NMDA): > 10 µM
- Ki (SERT): > 10 µM
- Ki (Sigma2): 2.46 µM
- Ki (I): > 10 µM
- Ki (VMAT): > 10 µM
- Ki (NT): > 10 µM
- Ki (PKC): > 10 µM
- Ki (5-HT1A-1E): > 10 µM
- Ki (5-HT2A-2C): > 10 µM
- Ki (5-HT3-7): > 10 µM
- Ki (α2A-2C): > 10 µM
- Ki (β1-3): > 10 µM
- Ki (CB1, CB2): > 10 µM
- Ki (D1-D5): > 10 µM

SMILES: Cc1nc(N(C)c2ccc(OCC[18F])cc2)c2ccccc2n1 [[^18F]FEMPC-6827]
- BBB penetration and brain distribution (brain MTs): blood brain barrier penetration and accumulation in the brain

SMILES: COc1ccc2c(c1)NC(=O)CN2c1nc(C)nc2ccccc12 [WX-132-18B, 7-Methoxy-4-(2-methylquinazolin-4-yl)-3,4-dihydroquinoxalin-2(1H)-one]
- binding to a panel / variety of kinases (panel of kinases): selective
- BBB penetration [1]: BBB penetrant
- tumor growth inhibition (TGI) compared with paclitaxel (tumor xenografts): higher tumor growth inhibition (TGI) than paclitaxel

SMILES: Cc1coc2ncnc(N(C)c3ccc(O[11CH3])cc3)c12 [[^11C]HD-800]
- BBB penetration and brain distribution (brain MTs): penetrated the BBB followed by a homogeneous distribution in the mouse brain
- blocking of brain activity (brain MTs; unlabeled MPC-6827 and HD-800 (5 mg/kg/i.v) 20 minute prior to radioligand): significant decreasing activity

SMILES: Cc1nc(N(C)c2ccc(OCCF)cc2)c2c(C)coc2n1 [FE-HD-800]
- Ki (Adenosine): > 10 µM
- Ki (α1A-1C): > 10 µM
- Ki (BZP): > 10 µM
- Ki (Ca++ channel): > 10 µM
- Ki (AMPA): > 10 µM
- Ki (NET): > 10 µM
- Ki (NK): > 10 µM
- Ki (Sigma1): 0.832 µM
- Ki (Na+ Channel): > 10 µM
- Ki (mGluR): > 10 µM
- Ki (NOP): > 10 µM
- Ki (PBR): > 10 µM
- Ki (Oxytocin): > 10 µM
- Ki (Smoothened): > 10 µM
- Ki (KA): > 10 µM
- Ki (DAT): > 10 µM
- Ki (DOR): > 10 µM
- Ki (EP): > 10 µM
- Ki (GABA): > 10 µM
- Ki (HERG): > 10 µM
- Ki (KOR): > 10 µM
- Ki (M): > 10 µM
- Ki (H3, H4): > 10 µM
- Ki (MDR1): > 10 µM
- Ki (H1): 3.37 µM
- Ki (H2): > 10 µM
- Ki (MOR): > 10 µM
- Ki (NMDA): > 10 µM
- Ki (SERT): > 10 µM
- Ki (Sigma2): 2.46 µM
- Ki (I): > 10 µM
- Ki (VMAT): > 10 µM
- Ki (NT): > 10 µM
- Ki (PKC): > 10 µM
- Ki (5-HT1A-1E): > 10 µM
- Ki (5-HT2A-2C): > 10 µM
- Ki (5-HT3-7): > 10 µM
- Ki (α2A-2C): > 10 µM
- Ki (β1-3): > 10 µM
- Ki (CB1, CB2): > 10 µM
- Ki (D1-D5): > 10 µM

— patent US12054463B2, “Radiolabeled microtubule imaging compounds and uses thereof” (The Trustees of Columbia University in the City of New York, priority 2017, dated 2024)
